Assay: Check for conversion of the anhydrate to the hemihydrate in soft gelatin capsules (infrared spectroscopy or DSC)
Type: physicochemical
Details: paroxetin anhydrate incorporated into soft gelatin capsules; lipophilic carrier silicone oil
Excerpt: The incorporation of paroxetin anhydrate into soft gelatin capsules was surprising because soft gelatin contains very large amounts of water during the encapsulation process. […] However, the use of glycerol in the preparation of the capsule coat should be avoided.
A test for absence of the hemihydrate can be performed very simply by infrared spectroscopy or differential scanning calorimetry (DSC), as described by P.C. Baxter et al. in the International Journal of Pharmaceutics, 42 (1988), pages 135 to 143.

Fc1ccc([C@@H]2CCNC[C@H]2COc2ccc3c(c2)OCO3)cc1 (relative stereo) [paroxetin anhydrate, (—)-trans-4-(4′-fluorophenyl)-3-(3′,4′-methylenedioxyphenoxymethyl)-piperidine]
conversion to the hemihydrate: did not occur

Source: patent publication US6596309B2, “Stable pharmaceutical dosage form for paroxetin anhydrate” (BASF Aktiengesellschaft, priority 1999, dated 2003)
